Among the data in PubChem BioAssay (NCI) are TGI and GI50 values, retold here.

Test systems include SK-MEL-5 melanoma; MOLT-4 leukemia; M14 melanoma; LXFL 529 NSCLC; HOP-62 NSCLC; HCT-116 colon; UACC-257 melanoma; HCC-2998 colon; UO-31 renal; KM12 colon.
What all share (assay): NCI-60 cell line screen, 48 h

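Growth conditions: 96-well plates. Treatment: test compound, 48 hours, 5 concentrations. Analysis: linear interpolation between bracketing concentrations; unreached endpoints set to highest concentration. GI50 marks 50% less growth. TGI: concentration producing complete growth inhibition.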

`C/C(CCn1[nH]c(=O)ccc1=O)=N\O`: the TGI with SK-MEL-5 melanoma, in the test with MOLT-4 leukemia, in the test with M14 melanoma, in the test on LXFL 529 NSCLC, with HOP-62 NSCLC and in the test on HCT-116 colon was more than 100 µM each time. The TGI in the test with UACC-257 melanoma, in the test with HCC-2998 colon, in the test on UO-31 renal and in the test on KM12 colon was more than 100 µM each time.

`CC1=C(C(=O)Nc2ccccc2C)C(c2ccco2)C(C(=O)Nc2ccccc2C)=C(C)N1C`: the TGI with SK-MEL-5 melanoma, in the test on MOLT-4 leukemia, in the test with M14 melanoma, with LXFL 529 NSCLC, in the test on HOP-62 NSCLC and with HCT-116 colon was more than 100 µM in each case. Besides, the TGI in the test with UACC-257 melanoma, in the test on HCC-2998 colon, in the test on UO-31 renal and in the test on KM12 colon was more than 100 µM throughout.

Regarding `O=C1c2ccccc2C(=O)c2sc(Nc3cccc(Cl)c3)nc21`, the TGI with SK-MEL-5 melanoma amounted to 2.99 µM; with MOLT-4 leukemia it was 3.05 µM; in the test with M14 melanoma, 3.24 µM; with LXFL 529 NSCLC, 2.86 µM; in the test on HOP-62 NSCLC, 3.19 µM; in the test with HCT-116 colon it was 2.54 µM. Moreover, the TGI with UACC-257 melanoma was found to be 2.99 µM; with HCC-2998 colon, 5.3 µM; with UO-31 renal, 4 µM; with KM12 colon, 4.1 µM.

With `CC1(C)OC(=O)C(=Cc2ccc(O)cc2)C(=O)O1`, the TGI in the test on SK-MEL-5 melanoma, in the test on MOLT-4 leukemia, in the test with M14 melanoma, in the test on LXFL 529 NSCLC, in the test with HOP-62 NSCLC and in the test with HCT-116 colon was more than 100 µM throughout. Further, the TGI with UACC-257 melanoma, with HCC-2998 colon, with UO-31 renal and in the test with KM12 colon was more than 100 µM in each case.

As to `COc1ccc(NC(=O)c2cc(OC)cc(OC)c2)cc1`, the TGI in the test with SK-MEL-5 melanoma, with MOLT-4 leukemia, in the test with M14 melanoma, in the test with LXFL 529 NSCLC, with HOP-62 NSCLC and in the test on HCT-116 colon was more than 100 µM in each case. In addition, the TGI with UACC-257 melanoma, in the test with HCC-2998 colon, in the test on UO-31 renal and in the test on KM12 colon was more than 100 µM in each case.

As to `COc1ccccc1NC(=O)CC(=O)n1nc(C)c(N=Nc2ccccc2C(=O)O)c1C`, the TGI with SK-MEL-5 melanoma, with MOLT-4 leukemia, in the test with M14 melanoma, in the test on LXFL 529 NSCLC, in the test on HOP-62 NSCLC and in the test with HCT-116 colon was more than 100 µM throughout. Besides, the TGI in the test with UACC-257 melanoma, with HCC-2998 colon, in the test with UO-31 renal and in the test with KM12 colon was more than 100 µM each time.

With `COc1cc2cnc3c4cc(OC(C)C)c(OC)cc4ccc3c2cc1OC`, the TGI with SK-MEL-5 melanoma, in the test with MOLT-4 leukemia, with M14 melanoma, in the test on LXFL 529 NSCLC, with HOP-62 NSCLC and with HCT-116 colon was more than 100 µM each time. The TGI in the test on UACC-257 melanoma, in the test on HCC-2998 colon, with UO-31 renal and with KM12 colon was more than 100 µM throughout.

As for `CC(=O)OC1COC(n2c(=S)n(-c3ccc(C)cc3)c(=O)c3ccccc32)C(OC(C)=O)C1OC(C)=O` (centres undefined), the TGI in the test with SK-MEL-5 melanoma, in the test with MOLT-4 leukemia, with M14 melanoma, with LXFL 529 NSCLC, in the test with HOP-62 NSCLC and in the test with HCT-116 colon was more than 100 µM throughout. Besides, the TGI in the test on UACC-257 melanoma, with HCC-2998 colon, in the test on UO-31 renal and in the test on KM12 colon was more than 100 µM each time.

Regarding `O=c1cc(-c2cccc(O)c2)[nH]c2cc3c(cc12)OCO3`, the TGI in the test on SK-MEL-5 melanoma was 5.01 µM; in the test with MOLT-4 leukemia, more than 100 µM; in the test on M14 melanoma, more than 52.5 µM; in the test with LXFL 529 NSCLC, more than 100 µM; in the test on HOP-62 NSCLC it was 14.7 µM; in the test with HCT-116 colon it was more than 100 µM. Further, the TGI in the test on UACC-257 melanoma, in the test with HCC-2998 colon, with UO-31 renal and in the test with KM12 colon was more than 100 µM throughout.

As to `O=C(/C=C/c1ccccc1Cl)c1ccc(Cl)c(Cl)c1`, the TGI worked out at 36.1 µM in the test with SK-MEL-5 melanoma; 61.4 µM in the test with MOLT-4 leukemia; 33.4 µM in the test on M14 melanoma; 29.6 µM with LXFL 529 NSCLC; 57.6 µM with HOP-62 NSCLC; 23.6 µM in the test with HCT-116 colon. Besides, the TGI in the test with UACC-257 melanoma was 40.2 µM; with HCC-2998 colon, 28.8 µM; in the test with UO-31 renal it was 30.9 µM; with KM12 colon, 29.7 µM.

On to `C=CCc1cc(OC)c2c(c1)C(O)CC(c1ccc(OC)c(OC)c1)O2` (centres undefined), for which the TGI in the test with SK-MEL-5 melanoma, with MOLT-4 leukemia, with M14 melanoma, with LXFL 529 NSCLC, in the test on HOP-62 NSCLC and in the test on HCT-116 colon was more than 100 µM in each case. Further, the TGI in the test with UACC-257 melanoma, in the test on HCC-2998 colon, in the test on UO-31 renal and in the test with KM12 colon was more than 100 µM each time.

In the case of `COc1ccc2nc3cc(Cl)ccc3c(Sc3ccccc3[N+](=O)[O-])c2c1`, the TGI in the test on SK-MEL-5 melanoma, in the test with MOLT-4 leukemia, in the test with M14 melanoma, with LXFL 529 NSCLC, in the test with HOP-62 NSCLC and with HCT-116 colon was more than 100 µM each time. The TGI in the test with UACC-257 melanoma, in the test with HCC-2998 colon, in the test on UO-31 renal and in the test on KM12 colon was more than 100 µM throughout.

As for `CC1(C)COC(c2ccc(C(F)(F)F)cc2C(O)c2ccc3ccccc3c2)=N1` (centres undefined), the GI50 in the test with SK-MEL-5 melanoma, in the test on MOLT-4 leukemia, in the test with M14 melanoma, with LXFL 529 NSCLC, with HOP-62 NSCLC and with UACC-257 melanoma was more than 100 µM in each case. The GI50 in the test on HCC-2998 colon, in the test with UO-31 renal and with KM12 colon was more than 100 µM in each case. Besides, the TGI in the test on SK-MEL-5 melanoma was more than 100 µM; with MOLT-4 leukemia it was more than 100 µM; in the test on M14 melanoma, more than 100 µM; in the test with LXFL 529 NSCLC it was more than 100 µM; in the test with HOP-62 NSCLC, more than 100 µM; with HCT-116 colon it was more than 10 µM. Besides, the TGI in the test with UACC-257 melanoma, with HCC-2998 colon, with UO-31 renal and in the test with KM12 colon was more than 100 µM in each case.

As for `N#CC(C#N)=c1ccc(=C2NCC3CCCN23)cc1` (centres undefined), the TGI in the test with SK-MEL-5 melanoma, in the test on MOLT-4 leukemia, in the test on M14 melanoma, in the test on LXFL 529 NSCLC, with HOP-62 NSCLC and with HCT-116 colon was more than 100 µM in each case. For the same compound, the TGI with UACC-257 melanoma, in the test with HCC-2998 colon, with UO-31 renal and in the test on KM12 colon was more than 100 µM each time.

`Cc1nc2c(nc1C)C(=O)c1ccccc1C2=O`: the TGI was 0.518 µM in the test with SK-MEL-5 melanoma; 48 µM with MOLT-4 leukemia; 2.26 µM with M14 melanoma; more than 58.3 µM in the test on LXFL 529 NSCLC; 10.3 µM with HOP-62 NSCLC; 13 µM in the test with HCT-116 colon. Further, the TGI in the test on UACC-257 melanoma was 4.3 µM; in the test with HCC-2998 colon, 15 µM; with UO-31 renal, 36.2 µM; with KM12 colon, 35.3 µM.

As for `COc1cccc(NC(=O)CC(=O)n2nc(C)c(N=Nc3ccccc3)c2C)c1`, the TGI in the test on SK-MEL-5 melanoma, in the test with MOLT-4 leukemia, with M14 melanoma, with LXFL 529 NSCLC, in the test with HOP-62 NSCLC and in the test with HCT-116 colon was more than 100 µM each time. The TGI in the test on UACC-257 melanoma, in the test with HCC-2998 colon, with UO-31 renal and in the test with KM12 colon was more than 100 µM each time.

For `O=C1C2=C(SCCS2)C(=O)c2ccccc21`, the TGI with SK-MEL-5 melanoma is 3.09 µM; in the test on MOLT-4 leukemia, 27.7 µM; in the test with M14 melanoma it was 3.33 µM; in the test with LXFL 529 NSCLC, 3.02 µM; with HOP-62 NSCLC, 2.9 µM; in the test on HCT-116 colon it was 3.04 µM. The TGI with UACC-257 melanoma was 3.45 µM; in the test with HCC-2998 colon it was 3.11 µM; in the test on UO-31 renal it was 3.37 µM; in the test on KM12 colon, 3.18 µM.

For `CC(=O)N1[C@H](C(=O)O)CS[C@H]1c1ccncc1`, the TGI with SK-MEL-5 melanoma, in the test on MOLT-4 leukemia, with M14 melanoma, in the test on LXFL 529 NSCLC, with HOP-62 NSCLC and in the test on HCT-116 colon was more than 100 µM in each case. Further, the TGI in the test on UACC-257 melanoma, in the test on HCC-2998 colon, with UO-31 renal and with KM12 colon was more than 100 µM each time.

As for `CCOC(=O)c1ncn2c1[nH]c(=S)c1ccccc12`, the TGI in the test with SK-MEL-5 melanoma, with MOLT-4 leukemia, with M14 melanoma, in the test on LXFL 529 NSCLC, in the test on HOP-62 NSCLC and with HCT-116 colon was more than 100 µM each time. Further, the TGI in the test on UACC-257 melanoma, in the test with HCC-2998 colon, in the test on UO-31 renal and in the test with KM12 colon was more than 100 µM in each case.

`COc1ccc(/C=C\c2cc(OC)c3c(c2)OCO3)c(O)c1O`: the TGI in the test with SK-MEL-5 melanoma is 6.32 µM; with MOLT-4 leukemia it was 47.5 µM; with M14 melanoma, 11.7 µM; in the test on LXFL 529 NSCLC, 3.74 µM; with HOP-62 NSCLC it was 64.5 µM; with HCT-116 colon it was 17.7 µM. The TGI was 53.4 µM in the test on UACC-257 melanoma, more than 58 µM with HCC-2998 colon, 12 µM in the test with UO-31 renal and 21.4 µM with KM12 colon.

For the compound `O=C(CSC(=S)N1CCCCC1)Nc1nc2c(s1)CCCC2`, the TGI was 32.9 µM in the test with SK-MEL-5 melanoma; 47.8 µM in the test on MOLT-4 leukemia; more than 100 µM in the test with M14 melanoma; more than 100 µM with LXFL 529 NSCLC; more than 100 µM with HOP-62 NSCLC; 32.2 µM with HCT-116 colon. Also, the TGI is 57.7 µM in the test with UACC-257 melanoma, more than 100 µM in the test with HCC-2998 colon, more than 100 µM in the test with UO-31 renal and more than 100 µM in the test on KM12 colon.
